The numbers were not newly measured in patent US11040008B2, “Pharmaceutical compositions of meloxicam” (Slayback Pharma LLC, priority 2018, dated 2021), which cites them from elsewhere.

For data set [1] the following is noted: oral, fasted steady state conditions.

In the case of `Cc1cnc(NC(=O)C2=C(O)c3ccccc3S(=O)(=O)N2C)s1` [meloxicam, 4-hydroxy-2-methyl-N-(5-methyl-2-thiazolyl)-2H-1,2-benzothiazine-3-carboxamide-1,1-dioxide], the Solubility in water result is “practically insoluble in water”. For the same compound, the “Time of second meloxicam concentration peak post-dose” value in data set [1] was “twelve to fourteen”.
